In patent publication US20260125371A1, “METHOD FOR INHIBITING CLOSTRIDIOIDES DIFFICILE SPORE GERMINATION” (UNIVERSITY OF NOTRE DAME DU LAC, priority 2022, published 2026):
In brackets after ≈: the same amount, converted by molar mass. Like-named read-outs stand apart in the source and are kept apart here.

Legend:
[1] = test system: S. epidermidis ATCC 35547; details: cited from earlier work
[2] = test system: S. aureus; details: cited from earlier work
[3] = test system: B. cereus ATCC 13061; details: cited from earlier work
[4] = test system: E. faecalis; details: cited from earlier work
[5] = test system: MRSA; details: cited from earlier work
[6] = test system: C. difficile ATCC 43255; assay: Time-kill assay; assay type: cell-based, Clostridioides difficile
[7] = test system: Bacteroides fragilis HM-709; assay: MIC against Bacteroides fragilis (gut bacteria); assay type: cell-based; details: HM709
[8] = test system: C. difficile strain ATCC43255 spores; assay: Spore germination inhibition assay; assay type: cell-based, Clostridioides difficile; details: Clostridioides difficile, 1 h, compound 45 μM, germinant 6 mM taurocholate and 12 mM glycine, OD600 over 60 min, duplicate
[9] = test system: C. difficile ATCC 43255; assay type: cell-based, Clostridioides difficile
[10] = test system: Lactobacillus reuteri HM-102; assay: MIC against Lactobacillus reuteri (gut bacteria); assay type: cell-based; details: Limosilactobacillus reuteri, HM102
[11] = test system: extended panel of Gram-positive bacteria; assay: MIC range over extended panel of Gram-positive bacteria; assay type: cell-based; details: other than C. difficile
[12] = test system: HepG2 cells; assay: XTT cytotoxicity assay; assay type: cell-based; details: Homo sapiens, HepG2, read-out: XTT IC50
[13] = test system: Lactobacillus gasseri HM-644; assay: MIC against Lactobacillus gasseri (gut bacteria); assay type: cell-based; details: HM644
[14] = test system: Corynebacterium spp. HM-784; assay: MIC against Corynebacterium spp. (gut bacteria); assay type: cell-based; details: SPP.HM784
[15] = test system: S. oralis ATCC 9811; assay: MIC against S. oralis; assay type: cell-based; details: Streptococcus oralis, ATCC9811
[16] = test system: S. epidermidis ATCC 35547; assay: MIC against S. epidermidis; assay type: cell-based; details: Staphylococcus epidermidis, ATCC35547
[17] = test system: B. cereus ATCC 13061; assay: MIC against B. cereus; assay type: cell-based; details: Bacillus cereus, ATCC13061
[18] = test system: B. licheniformis ATCC 12759; assay: MIC against B. licheniformis; assay type: cell-based; details: Bacillus licheniformis, ATCC12759

FC(F)(F)c1ccc(Oc2ccc(-c3noc(-c4ccc5[nH]ccc5c4)n3)cc2)cc1 [Compound 1]
MIC [1]: 2 µg/mL (≈ 4.75 µM)
MIC against MRSA ([2]; MRSA): 2 µg/mL (≈ 4.75 µM)
MIC ([2]; S. aureus ATCC 27660): 4 µg/mL (≈ 9.49 µM)
MIC ([2]; S. aureus ATCC 29213): 4 µg/mL (≈ 9.49 µM)
MIC ([2]; S. aureus NRS100 (COL)): 2 µg/mL (≈ 4.75 µM)
MIC ([2]; S. aureus NRS119): 2 µg/mL (≈ 4.75 µM)
MIC ([2]; S. aureus NRS120): 2 µg/mL (≈ 4.75 µM)
MIC ([2]; S. aureus VRS1): 2 µg/mL (≈ 4.75 µM)
MIC ([2]; S. aureus VRS2): 2 µg/mL (≈ 4.75 µM)
MIC [3]: 16 µg/mL (≈ 38 µM)
MIC ([4]; E. faecalis 99 (Van R)): 4 µg/mL (≈ 9.49 µM)
MIC ([4]; E. faecalis 201 (Van S)): 4 µg/mL (≈ 9.49 µM)
MIC ([4]; E. faecalis ATCC 29212): 8 µg/mL (≈ 19 µM)
efficacy in mouse models of MRSA infection [5]: efficacious

Oc1ccc(-c2nc(-c3ccc(OC4CCCC4)cc3)no2)cc1 [Compound 2]
MIC [1]: 2 µg/mL (≈ 6.2 µM)
MIC ([2]; S. aureus ATCC 27660): 2 to 4 µg/mL
MIC ([2]; S. aureus ATCC 29213): 2 µg/mL (≈ 6.2 µM)
MIC ([2]; S. aureus NRS100 (COL)): 1 µg/mL (≈ 3.1 µM)
MIC ([2]; S. aureus NRS119): 1 to 2 µg/mL
MIC ([2]; S. aureus NRS120): 2 µg/mL (≈ 6.2 µM)
MIC ([2]; S. aureus VRS1): 2 µg/mL (≈ 6.2 µM)
MIC ([2]; S. aureus VRS2): 2 µg/mL (≈ 6.2 µM)
MIC [3]: 2 µg/mL (≈ 6.2 µM)
MIC ([4]; E. faecalis 99 (Van R)): 4 µg/mL (≈ 12.4 µM)
MIC ([4]; E. faecalis 201 (Van S)): 4 µg/mL (≈ 12.4 µM)
MIC ([4]; E. faecalis ATCC 29212): 4 µg/mL (≈ 12.4 µM)

O=[N+]([O-])c1cnc(-c2nc(-c3ccc(OC4CCCC4)cc3)no2)[nH]1 [Compound 57, 3-(4-(Cyclopentyloxy)phenyl)-5-(4-nitro-1H-imidazol-2-yl)-1,2,4-oxadiazole]
reduction in bacterial growth (time-kill) ([6]; 4× MIC, 12 h): ≥ 3 log10
reduction in bacterial growth (time-kill) ([6]; 8× MIC): 4 log 10
reduction in bacterial growth (time-kill) ([6]; all concentrations: 1×, 2×, 4×, 8× MIC): Four-log10 reduction
MIC [7]: 128 µg/mL (≈ 375 µM)
inhibition at 45 µM [8]: < 10%
passages after which MIC increased 2-fold ([9]; 2-fold MIC increase): 8 passages
passages after which MIC increased 4-fold ([9]; 4-fold MIC increase): 14 passages
passages after which MIC increased 8-fold ([9]; 8-fold MIC increase): 20 passages
increase in MIC on serial passage ([9]; whole serial passage experiment (30 passages)): 8 fold
MIC [10]: > 128 µg/mL
activity against Gram-positive bacteria [11]: not active
IC50 [12]: 53.4 ± 4.5 µg/mL (≈ 156 µM)
MIC [13]: > 128 µg/mL
MIC [14]: > 128 µg/mL

CCc1c(Cl)c(O)c(Cl)c(O)c1C(=O)O[C@H]1[C@H](O)[C@H](OC)[C@H](OC/C2=C\C=C\C[C@H](O)/C(C)=C/[C@H](CC)[C@@H](O[C@@H]3OC(C)(C)[C@@H](OC(=O)C(C)C)[C@H](O)[C@@H]3O)/C(C)=C/C(C)=C/C[C@@H]([C@@H](C)O)OC2=O)O[C@@H]1C [FDX, fidaxomicin]
MIC [15]: 32 µg/mL (≈ 30.2 µM)

Cc1ncc([N+](=O)[O-])n1CCO [MTZ, metronidazole]
reduction in bacterial growth (time-kill) ([6]; 8× MIC): 4 log 10
MIC [16]: > 128 µg/mL
MIC [17]: > 256 µg/mL
MIC [18]: > 256 µg/mL
